Patent US10168342B2, “Lipid probes and uses thereof” (THE SCRIPPS RESEARCH INSTITUTE, priority 2015, dated 2019)
Where two headings read alike, the source gives them in different places.

Columns and labels:
[1] = molecular target: T1, AEA-DA lipid probe targets in Neuro2a cells (Mus musculus, UniProt O35114)
T1 sequence (O35114 1-478): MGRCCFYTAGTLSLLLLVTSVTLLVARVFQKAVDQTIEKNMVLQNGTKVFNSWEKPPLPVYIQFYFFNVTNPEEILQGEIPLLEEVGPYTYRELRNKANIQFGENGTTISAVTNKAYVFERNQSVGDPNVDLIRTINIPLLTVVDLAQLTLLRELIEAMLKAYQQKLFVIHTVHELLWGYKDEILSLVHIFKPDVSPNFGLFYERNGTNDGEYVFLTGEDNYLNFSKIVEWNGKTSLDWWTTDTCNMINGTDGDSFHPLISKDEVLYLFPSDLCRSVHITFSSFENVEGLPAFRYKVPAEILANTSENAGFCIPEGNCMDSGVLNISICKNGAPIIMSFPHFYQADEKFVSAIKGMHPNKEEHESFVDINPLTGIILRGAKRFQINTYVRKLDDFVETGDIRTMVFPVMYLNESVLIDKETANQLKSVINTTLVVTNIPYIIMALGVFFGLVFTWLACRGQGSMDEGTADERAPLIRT

[2] = molecular target: AEA-DA lipid probe targets in Neuro2a cells (Mus musculus, UniProt P47740)
[3] = molecular target: T2, AEA-DA lipid probe targets in Neuro2a cells (Mus musculus, UniProt Q6GV12)
T2 sequence (Q6GV12 26-332): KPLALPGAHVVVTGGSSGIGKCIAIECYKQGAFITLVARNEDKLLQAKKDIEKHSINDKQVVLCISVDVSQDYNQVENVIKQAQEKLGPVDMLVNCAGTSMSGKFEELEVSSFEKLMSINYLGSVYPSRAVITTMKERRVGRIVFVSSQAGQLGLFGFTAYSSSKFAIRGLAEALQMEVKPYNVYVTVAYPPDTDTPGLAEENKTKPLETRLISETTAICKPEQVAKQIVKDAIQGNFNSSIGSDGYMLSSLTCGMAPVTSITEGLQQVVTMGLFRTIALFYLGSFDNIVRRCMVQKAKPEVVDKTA

[4] = molecular target: T3, AEA-DA lipid probe targets in Neuro2a cells (Mus musculus, UniProt Q80W54)
T3 sequence (Q80W54 1-475): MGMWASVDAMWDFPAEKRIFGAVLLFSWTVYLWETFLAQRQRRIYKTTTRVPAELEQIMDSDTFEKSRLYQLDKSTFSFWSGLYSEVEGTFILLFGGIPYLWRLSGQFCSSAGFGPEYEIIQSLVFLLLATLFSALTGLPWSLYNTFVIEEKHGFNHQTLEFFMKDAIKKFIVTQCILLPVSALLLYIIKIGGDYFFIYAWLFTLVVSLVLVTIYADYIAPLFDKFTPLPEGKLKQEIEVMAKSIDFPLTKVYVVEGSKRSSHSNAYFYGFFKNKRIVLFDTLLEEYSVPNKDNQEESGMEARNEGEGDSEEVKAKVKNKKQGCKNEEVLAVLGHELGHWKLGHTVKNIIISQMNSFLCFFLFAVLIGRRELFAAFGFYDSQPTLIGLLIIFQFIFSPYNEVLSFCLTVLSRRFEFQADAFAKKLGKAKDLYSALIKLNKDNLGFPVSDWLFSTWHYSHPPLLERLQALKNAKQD

[5] = molecular target: T4, AEA-DA lipid probe targets in Neuro2a cells (Mus musculus, UniProt Q8K2C9)
T4 sequence (Q8K2C9 1-362): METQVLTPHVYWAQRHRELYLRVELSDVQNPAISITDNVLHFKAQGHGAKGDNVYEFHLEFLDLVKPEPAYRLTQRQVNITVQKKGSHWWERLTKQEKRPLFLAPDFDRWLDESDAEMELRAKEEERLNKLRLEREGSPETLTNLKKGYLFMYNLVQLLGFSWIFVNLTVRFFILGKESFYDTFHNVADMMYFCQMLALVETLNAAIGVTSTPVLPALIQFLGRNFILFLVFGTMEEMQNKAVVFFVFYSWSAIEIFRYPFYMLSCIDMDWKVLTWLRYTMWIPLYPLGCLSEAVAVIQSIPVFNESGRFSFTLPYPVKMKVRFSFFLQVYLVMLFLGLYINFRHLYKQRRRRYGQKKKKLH

[6] = molecular target: T5, AEA-DA lipid probe targets in Neuro2a cells (Mus musculus, UniProt Q9CQ85); conditions: for SILAC ratio, TIMM22 (Q9CQ85): Neuro2a cells, AEA-DA probe
T5 sequence (Q9CQ85 1-194): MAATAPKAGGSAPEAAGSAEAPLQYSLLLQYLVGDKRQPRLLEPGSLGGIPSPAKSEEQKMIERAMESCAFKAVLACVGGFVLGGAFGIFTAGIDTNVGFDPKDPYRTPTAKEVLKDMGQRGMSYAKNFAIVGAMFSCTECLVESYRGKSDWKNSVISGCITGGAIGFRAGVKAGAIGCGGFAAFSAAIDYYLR

[7] = molecular target: T6, AEA-DA lipid probe targets in Neuro2a cells (Mus musculus, UniProt Q9D024)
T6 sequence (Q9D024 21-483): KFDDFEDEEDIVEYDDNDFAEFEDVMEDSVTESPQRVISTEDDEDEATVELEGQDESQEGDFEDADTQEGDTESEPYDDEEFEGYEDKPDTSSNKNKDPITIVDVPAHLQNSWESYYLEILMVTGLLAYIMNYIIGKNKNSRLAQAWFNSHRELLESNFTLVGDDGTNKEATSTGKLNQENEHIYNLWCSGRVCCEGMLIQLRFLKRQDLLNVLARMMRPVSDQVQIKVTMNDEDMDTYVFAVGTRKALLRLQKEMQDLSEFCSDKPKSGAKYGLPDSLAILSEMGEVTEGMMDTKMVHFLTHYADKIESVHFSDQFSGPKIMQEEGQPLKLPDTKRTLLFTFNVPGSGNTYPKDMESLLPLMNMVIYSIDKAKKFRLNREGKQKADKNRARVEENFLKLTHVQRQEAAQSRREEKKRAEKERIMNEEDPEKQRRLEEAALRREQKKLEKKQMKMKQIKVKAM

[8] = molecular target: AEA-DA lipid probe targets in Neuro2a cells (Mus musculus, UniProt Q9Z0V7)
Chain of AEA-DA lipid probe targets in Neuro2a cells (Mus musculus, UniProt Q9Z0V7) (Q9Z0V7 whole entry): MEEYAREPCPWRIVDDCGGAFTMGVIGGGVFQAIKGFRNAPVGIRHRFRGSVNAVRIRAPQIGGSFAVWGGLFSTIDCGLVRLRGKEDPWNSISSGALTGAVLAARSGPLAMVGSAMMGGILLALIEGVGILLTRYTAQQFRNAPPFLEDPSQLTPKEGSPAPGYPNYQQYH

Chain of AEA-DA lipid probe targets in Neuro2a cells (Mus musculus, UniProt P47740) (P47740 whole entry): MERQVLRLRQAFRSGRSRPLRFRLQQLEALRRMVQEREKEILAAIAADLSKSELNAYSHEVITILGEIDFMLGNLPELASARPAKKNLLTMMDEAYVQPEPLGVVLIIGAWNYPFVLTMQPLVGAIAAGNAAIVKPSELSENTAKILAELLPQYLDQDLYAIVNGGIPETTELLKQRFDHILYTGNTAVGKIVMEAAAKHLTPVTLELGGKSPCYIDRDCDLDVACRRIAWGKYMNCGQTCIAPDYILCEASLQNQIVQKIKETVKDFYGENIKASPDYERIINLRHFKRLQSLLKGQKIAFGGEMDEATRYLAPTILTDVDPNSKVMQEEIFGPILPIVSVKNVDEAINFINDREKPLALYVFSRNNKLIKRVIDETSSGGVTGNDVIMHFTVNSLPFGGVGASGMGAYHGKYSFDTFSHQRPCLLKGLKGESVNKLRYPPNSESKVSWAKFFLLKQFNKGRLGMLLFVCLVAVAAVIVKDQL

**Q.** What does the source list for `CCCCC/C=C\C/C=C\C/C=C\C/C=C\CCCC(=O)NCCO` [AEA, anandamide, reference compound]?
**A.** SILAC ratio Scarb2 ([1]; competitor 200 μM): 1.5; SILAC ratio, Aldh3a2 ([2]; competitor 200 μM): 1.7; SILAC ratio, Kdsr ([3]; competitor 200 μM): 3.6; SILAC ratio Zmpste24 ([4]; competitor 200 μM): 1.7; SILAC ratio ptplad1 ([5]; competitor 200 μM): 1.8; SILAC ratio, TIMM22 (Q9CQ85) ([6]; competitor 200 μM): 1.3; SILAC ratio, Timm22 ([6]; competitor 200 μM): 1.3; SILAC ratio, Ccdc47 ([7]; competitor 200 μM): 1.7; SILAC ratio, Timm17b ([8]; competitor 200 μM): 1.6

**Q.** Which “SILAC ratio Scarb2” value ([1]; competitor 25 μM) does the source give for `O=C(/C=C/c1cccnc1)NCCCCC1CCN(C(=O)c2ccccc2)CC1` [FK-866, reference compound] here?
**A.** 1.1

**Q.** What about the “SILAC ratio, Aldh3a2” value ([2]; competitor 25 μM) of the same compound?
**A.** 1.6

**Q.** And the “SILAC ratio, Kdsr” value ([3]; competitor 25 μM)?
**A.** 1.1

**Q.** What about the “SILAC ratio Zmpste24” value ([4]; competitor 25 μM) of the same compound?
**A.** 1.1

**Q.** What about the “SILAC ratio ptplad1” value ([5]; competitor 25 μM) of the same compound?
**A.** 1.2

**Q.** What about the “SILAC ratio, TIMM22 (Q9CQ85)” value ([6]; competitor 25 μM) of the same compound?
**A.** 1.2

**Q.** What about the “SILAC ratio, Timm22” value ([6]; competitor 25 μM) of the same compound?
**A.** 1.2

**Q.** What about the “SILAC ratio, Ccdc47” value ([7]; competitor 25 μM) of the same compound?
**A.** 1.3

**Q.** What about the “SILAC ratio, Timm17b” value ([8]; competitor 25 μM) of the same compound?
**A.** 1.2

**Q.** How did the “SILAC ratio Scarb2” value ([1]; competitor 25 μM) turn out when `CN1CCN(C(=O)c2c(-c3ccccc3)c3cc([N+](=O)[O-])ccc3n2C)CC1` [KML110, (1-Methyl-5-nitro-3-phenyl-1H-indol-2-yl)(4-methylpiperazin-1-yl)methanone] was run?
**A.** 1.3

**Q.** What about the “SILAC ratio, Aldh3a2” value ([2]; competitor 25 μM) of the same compound?
**A.** 1.4

**Q.** What about the “SILAC ratio, Kdsr” value ([3]; competitor 25 μM) of the same compound?
**A.** 1.6

**Q.** What about the “SILAC ratio Zmpste24” value ([4]; competitor 25 μM) of the same compound?
**A.** 1.4

**Q.** What about the “SILAC ratio ptplad1” value ([5]; competitor 25 μM) of the same compound?
**A.** 1.7

**Q.** What about the “SILAC ratio, Timm22” value ([6]; competitor 25 μM) of the same compound?
**A.** 1.4

**Q.** What about the “SILAC ratio, Ccdc47” value ([7]; competitor 25 μM) of the same compound?
**A.** 1.7

**Q.** And the “SILAC ratio, Timm17b” value ([8]; competitor 25 μM)?
**A.** 1.8

**Q.** For `CN1CCN(C(=O)c2[nH]c3ccc([N+](=O)[O-])cc3c2-c2ccccc2)CC1` [MJN228, (4-Methylpiperazin-1-yl)(5-nitro-3-phenyl-1H-indol-2-yl)methanone], which “SILAC ratio Scarb2” value ([1]; competitor 10 μM) is on record?
**A.** 1.3

**Q.** And the “SILAC ratio Scarb2” value ([1]; competitor 25 μM)?
**A.** 1.5

**Q.** What about the “SILAC ratio Scarb2” value ([1]; competitor 50 μM) of the same compound?
**A.** 1.7

**Q.** What about the “SILAC ratio Scarb2” value ([1]; competitor 100 μM) of the same compound?
**A.** 1.9

**Q.** What about the “SILAC ratio, Aldh3a2” value ([2]; competitor 10 μM) of the same compound?
**A.** 1.2

**Q.** And the “SILAC ratio, Aldh3a2” value ([2]; competitor 25 μM)?
**A.** 1.8

**Q.** And the “SILAC ratio, Aldh3a2” value ([2]; competitor 50 μM)?
**A.** 1.7

**Q.** What about the “SILAC ratio, Aldh3a2” value ([2]; competitor 100 μM) of the same compound?
**A.** 2.1

**Q.** And the “SILAC ratio, Kdsr” value ([3]; competitor 10 μM)?
**A.** 1.1

**Q.** What about the “SILAC ratio, Kdsr” value ([3]; competitor 25 μM) of the same compound?
**A.** 1.5

**Q.** What about the “SILAC ratio, Kdsr” value ([3]; competitor 50 μM) of the same compound?
**A.** 1.3

**Q.** And the “SILAC ratio, Kdsr” value ([3]; competitor 100 μM)?
**A.** 1.7

**Q.** And the “SILAC ratio Zmpste24” value ([4]; competitor 10 μM)?
**A.** 1.1

**Q.** And the “SILAC ratio Zmpste24” value ([4]; competitor 25 μM)?
**A.** 1.2

**Q.** And the “SILAC ratio Zmpste24” value ([4]; competitor 50 μM)?
**A.** 1.3

**Q.** And the “SILAC ratio Zmpste24” value ([4]; competitor 100 μM)?
**A.** 1.9

**Q.** What about the “SILAC ratio ptplad1” value ([5]; competitor 10 μM) of the same compound?
**A.** 1.3

**Q.** What about the “SILAC ratio ptplad1” value ([5]; competitor 25 μM) of the same compound?
**A.** 1.7

**Q.** What about the “SILAC ratio ptplad1” value ([5]; competitor 50 μM) of the same compound?
**A.** 1.9

**Q.** What about the “SILAC ratio ptplad1” value ([5]; competitor 100 μM) of the same compound?
**A.** 2.3

**Q.** And the “SILAC ratio, TIMM22 (Q9CQ85)” value ([6]; competitor 25 μM)?
**A.** 1.3

**Q.** What about the “SILAC ratio, Timm22” value ([6]; competitor 10 μM) of the same compound?
**A.** 1.0

**Q.** And the “SILAC ratio, Timm22” value ([6]; competitor 25 μM)?
**A.** 1.3

**Q.** What about the “SILAC ratio, Timm22” value ([6]; competitor 50 μM) of the same compound?
**A.** 1.0

**Q.** And the “SILAC ratio, Timm22” value ([6]; competitor 100 μM)?
**A.** 1.8

**Q.** And the “SILAC ratio, Ccdc47” value ([7]; competitor 10 μM)?
**A.** 1.4

**Q.** What about the “SILAC ratio, Ccdc47” value ([7]; competitor 25 μM) of the same compound?
**A.** 1.8

**Q.** And the “SILAC ratio, Ccdc47” value ([7]; competitor 50 μM)?
**A.** 1.9

**Q.** What about the “SILAC ratio, Ccdc47” value ([7]; competitor 100 μM) of the same compound?
**A.** 3.1

**Q.** And the “SILAC ratio, Timm17b” value ([8]; competitor 10 μM)?
**A.** 1.3

**Q.** And the “SILAC ratio, Timm17b” value ([8]; competitor 25 μM)?
**A.** 1.5

**Q.** And the “SILAC ratio, Timm17b” value ([8]; competitor 50 μM)?
**A.** 2.2

**Q.** What about the “SILAC ratio, Timm17b” value ([8]; competitor 100 μM) of the same compound?
**A.** 3.6

**Q.** `C=CCN(C)CCCCCCOc1ccc(C(=O)c2ccc(Br)cc2)c(F)c1` [Ro 48-8071, reference compound] was tested. Which “SILAC ratio Scarb2” value ([1]; competitor 25 μM) did it give?
**A.** 1.1

**Q.** What about the “SILAC ratio, Aldh3a2” value ([2]; competitor 25 μM) of the same compound?
**A.** 1.3

**Q.** What about the “SILAC ratio, Kdsr” value ([3]; competitor 25 μM) of the same compound?
**A.** 1.6

**Q.** What about the “SILAC ratio Zmpste24” value ([4]; competitor 25 μM) of the same compound?
**A.** 1.0

**Q.** And the “SILAC ratio ptplad1” value ([5]; competitor 25 μM)?
**A.** 1.4

**Q.** What about the “SILAC ratio, TIMM22 (Q9CQ85)” value ([6]; competitor 25 μM) of the same compound?
**A.** 1.1

**Q.** And the “SILAC ratio, Timm22” value ([6]; competitor 25 μM)?
**A.** 1.1

**Q.** And the “SILAC ratio, Ccdc47” value ([7]; competitor 25 μM)?
**A.** 1.4

**Q.** And the “SILAC ratio, Timm17b” value ([8]; competitor 25 μM)?
**A.** 2.8
